# Source: publication PMC5218480 (PLoS ONE, 2017)
# Tested on: MV-4-11 cells
# Test: Gene expression microarray analysis (Affymetrix PrimeView) and GSEA
# Format: cell-based, human
# Design: RFU PODN (11730768_x_at) / Fold change /veh PODN (11730768_x_at) / RFU LINC00158 (11744669_a_at) / Fold change /veh LINC00158 (11744669_a_at) / RFU DUSP10 (11751237_a_at) / Fold change /veh DUSP10 (11751237_a_at) / RFU ID3 (11757404_x_at) / Fold change /veh ID3 (11757404_x_at) / RFU PLEKHG5 (11737974_s_at) / Fold change /veh PLEKHG5 (11737974_s_at) / RFU LRRC4B (11730491_at) / Fold change /veh LRRC4B (11730491_at) / RFU GIMAP4 (11747438_a_at) / Fold change /veh GIMAP4 (11747438_a_at) / RFU KRT8 (11758183_x_at) / Fold change /veh KRT8 (11758183_x_at) / RFU CNN1 (11734310_a_at) / Fold change /veh CNN1 (11734310_a_at) / RFU VPS37D (11726825_at) / Fold change /veh VPS37D (11726825_at) / RFU C10orf10 (11716522_x_at) / Fold change /veh C10orf10 (11716522_x_at) / RFU KIR2DL2 /// KIR2DL4 /// KIR2DL5A /// KIR2DL5B /// KIR2DS1 /// KIR2DS2 /// KIR2DS3 /// KIR2DS4 /// KIR3DL3 /// KIR3DL3 /// KIR3DS1 (11738374_at) / Fold change /veh KIR2DL2 /// KIR2DL4 /// KIR2DL5A /// KIR2DL5B /// KIR2DS1 /// KIR2DS2 /// KIR2DS3 /// KIR2DS4 /// KIR3DL3 /// KIR3DL3 /// KIR3DS1 (11738374_at) / RFU C1QL1 (11718748_at) / Fold change /veh C1QL1 (11718748_at) / RFU TMPRSS4 (11747572_a_at) / Fold change /veh TMPRSS4 (11747572_a_at) / RFU HAMP (11756126_x_at) / Fold change /veh HAMP (11756126_x_at) / RFU RNFT2 (11725882_a_at) / Fold change /veh RNFT2 (11725882_a_at) / RFU NR4A2 (11747474_a_at) / Fold change /veh NR4A2 (11747474_a_at) / RFU ABCC12 (11746883_a_at) / Fold change /veh ABCC12 (11746883_a_at) / RFU TMEM136 (11760407_x_at) / Fold change /veh TMEM136 (11760407_x_at) / RFU CLDN22 /// WWC2 (11732394_at) / Fold change /veh CLDN22 /// WWC2 (11732394_at) / RFU HLA-DPB1 (11760878_x_at) / Fold change /veh HLA-DPB1 (11760878_x_at) / RFU SPINT1 (11716480_a_at) / Fold change /veh SPINT1 (11716480_a_at) / RFU GAP43 (11754022_s_at) / Fold change /veh GAP43 (11754022_s_at) / RFU A4GNT (11735810_at) / Fold change /veh A4GNT (11735810_at) / RFU PRB3 (11715151_x_at) / Fold change /veh PRB3 (11715151_x_at) / RFU TUBB4B (11761932_at) / Fold change /veh TUBB4B (11761932_at) / RFU CAPN14 (11732068_a_at) / Fold change /veh CAPN14 (11732068_a_at) / RFU TMCC2 (11721928_a_at) / Fold change /veh TMCC2 (11721928_a_at) / RFU IRGQ (11745062_a_at) / Fold change /veh IRGQ (11745062_a_at) / RFU FAM174B (11720279_a_at) / Fold change /veh FAM174B (11720279_a_at) / RFU TMPRSS4 (11748680_a_at) / Fold change /veh TMPRSS4 (11748680_a_at) / RFU FAM212B (11763350_a_at) / Fold change /veh FAM212B (11763350_a_at) / RFU PLEKHG5 (11743358_a_at) / Fold change /veh PLEKHG5 (11743358_a_at) / RFU ZSCAN30 (11745921_a_at) / Fold change /veh ZSCAN30 (11745921_a_at) / RFU CMKLR1 (11741424_a_at) / Fold change /veh CMKLR1 (11741424_a_at) / RFU LOC101060620 /// MAPK8IP1 (11723275_at) / Fold change /veh LOC101060620 /// MAPK8IP1 (11723275_at) / RFU SPTSSB (11747773_x_at) / Fold change /veh SPTSSB (11747773_x_at) / RFU PRSS12 (11739890_at) / Fold change /veh PRSS12 (11739890_at) / RFU BIN1 (11741810_x_at) / Fold change /veh BIN1 (11741810_x_at) / RFU WNT11 (11732464_a_at) / Fold change /veh WNT11 (11732464_a_at) / RFU C10orf10 (11716521_a_at) / Fold change /veh C10orf10 (11716521_a_at) / RFU C5orf56 (11738089_at) / Fold change /veh C5orf56 (11738089_at) / RFU CYB561 (11721691_x_at) / Fold change /veh CYB561 (11721691_x_at) / RFU ANKRD19P (11752326_a_at) / Fold change /veh ANKRD19P (11752326_a_at) / RFU OR2T12 /// OR2T33 /// OR2T8 (11738714_s_at) / Fold change /veh OR2T12 /// OR2T33 /// OR2T8 (11738714_s_at) / RFU VCAN (11748164_a_at) / Fold change /veh VCAN (11748164_a_at) / RFU JSRP1 (11732532_at) / Fold change /veh JSRP1 (11732532_at) / RFU KRTAP10-11 (11738290_x_at) / Fold change /veh KRTAP10-11 (11738290_x_at) / RFU MYO3A (11730013_a_at) / Fold change /veh MYO3A (11730013_a_at) / RFU EBF3 (11725865_a_at) / Fold change /veh EBF3 (11725865_a_at) / RFU CAMK2N1 (11719241_x_at) / Fold change /veh CAMK2N1 (11719241_x_at) / RFU C5orf56 (11738088_a_at) / Fold change /veh C5orf56 (11738088_a_at) / RFU OLFML3 (11715873_a_at) / Fold change /veh OLFML3 (11715873_a_at) / RFU LOC100653217 /// NTM (11731650_a_at) / Fold change /veh LOC100653217 /// NTM (11731650_a_at) / RFU MAPK11 (11762145_a_at) / Fold change /veh MAPK11 (11762145_a_at) / RFU FIZ1 (11724087_x_at) / Fold change /veh FIZ1 (11724087_x_at) / RFU OASL (11726364_x_at) / Fold change /veh OASL (11726364_x_at) / RFU SOX15 (11748057_x_at) / Fold change /veh SOX15 (11748057_x_at) / RFU CD79A (11719716_a_at) / Fold change /veh CD79A (11719716_a_at) / RFU HIST1H1D (11736915_at) / Fold change /veh HIST1H1D (11736915_at) / RFU CASKIN2 (11723855_a_at) / Fold change /veh CASKIN2 (11723855_a_at) / RFU LOC730098 (11760151_x_at) / Fold change /veh LOC730098 (11760151_x_at) / RFU OR4N2 (11742367_at) / Fold change /veh OR4N2 (11742367_at) / RFU PRRT2 (11749266_a_at) / Fold change /veh PRRT2 (11749266_a_at) / RFU SNX32 (11753110_a_at) / Fold change /veh SNX32 (11753110_a_at) / RFU CDHR5 (11726645_a_at) / Fold change /veh CDHR5 (11726645_a_at) / RFU RCAN1 (11760418_a_at) / Fold change /veh RCAN1 (11760418_a_at) / RFU FAM167A (11723789_a_at) / Fold change /veh FAM167A (11723789_a_at) / RFU FAM26E (11764081_at) / Fold change /veh FAM26E (11764081_at) / RFU ISYNA1 (11749810_s_at) / Fold change /veh ISYNA1 (11749810_s_at) / RFU ACY1 (11761880_at) / Fold change /veh ACY1 (11761880_at) / RFU 11764098_at / Fold change /veh 11764098_at / RFU SAMD14 (11745864_x_at) / Fold change /veh SAMD14 (11745864_x_at) / RFU NPB (11741838_a_at) / Fold change /veh NPB (11741838_a_at) / RFU TMPRSS6 (11731388_a_at) / Fold change /veh TMPRSS6 (11731388_a_at) / RFU KRTAP10-2 (11738614_at) / Fold change /veh KRTAP10-2 (11738614_at) / RFU ARHGAP8 /// PRR5-ARHGAP8 (11727945_x_at) / Fold change /veh ARHGAP8 /// PRR5-ARHGAP8 (11727945_x_at) / RFU KRTAP5-7 /// NADSYN1 (11734609_at) / Fold change /veh KRTAP5-7 /// NADSYN1 (11734609_at) / RFU RASL12 (11751679_a_at) / Fold change /veh RASL12 (11751679_a_at) / RFU CDKN2B (11736163_a_at) / Fold change /veh CDKN2B (11736163_a_at) / RFU PRF1 (11729649_at) / Fold change /veh PRF1 (11729649_at) / RFU, ZNF638 /// ZNF638-IT1 / Fold change vs veh, ZNF638 /// ZNF638-IT1 / RFU, PANK3 / Fold change vs veh, PANK3 / RFU, SH3YL1 / Fold change vs veh, SH3YL1 / RFU, ZEB2 / Fold change vs veh, ZEB2 / RFU, NRIP1 / Fold change vs veh, NRIP1 / RFU, PTTG1IP / Fold change vs veh, PTTG1IP / RFU, CAPN2 / Fold change vs veh, CAPN2 / RFU, MED14 / Fold change vs veh, MED14 / RFU, SNORA58 / Fold change vs veh, SNORA58 / RFU, C1orf63 / Fold change vs veh, C1orf63 / RFU, LRRFIP1 / Fold change vs veh, LRRFIP1 / RFU, NDUFAF7 / Fold change vs veh, NDUFAF7 / RFU, SLC12A2 / Fold change vs veh, SLC12A2 / RFU, IBTK / Fold change vs veh, IBTK / RFU, ESF1 / Fold change vs veh, ESF1 / Fold change vs veh, TMEM50B / RFU, TAOK1 / Fold change vs veh, TAOK1 / RFU, ACBD3 / Fold change vs veh, ACBD3 / RFU, TMA16 / Fold change vs veh, TMA16 / RFU, RWDD3 / Fold change vs veh, RWDD3 / RFU, BCAT1 / Fold change vs veh, BCAT1 / RFU, EDEM3 / Fold change vs veh, EDEM3 / RFU, TMEM33 / Fold change vs veh, TMEM33 / RFU, WDR75 / Fold change vs veh, WDR75 / RFU, AHCTF1 / Fold change vs veh, AHCTF1 / RFU, TFRC / Fold change vs veh, TFRC / RFU, ZDHHC17 / Fold change vs veh, ZDHHC17 / RFU, NOM1 / Fold change vs veh, NOM1 / RFU, ARL8B / Fold change vs veh, ARL8B / RFU, ZBTB11 / Fold change vs veh, ZBTB11 / RFU, TAMM41 / Fold change vs veh, TAMM41 / RFU, KIAA1704 /// LOC100996395 / Fold change vs veh, KIAA1704 /// LOC100996395 / RFU, ING1 / Fold change vs veh, ING1 / RFU, TRMT61B / Fold change vs veh, TRMT61B / RFU, FUBP3 / Fold change vs veh, FUBP3 / RFU, TP53 / Fold change vs veh, TP53 / RFU, TNKS2 / Fold change vs veh, TNKS2 / RFU, ZFP14 / Fold change vs veh, ZFP14 / RFU, ACTR2 / Fold change vs veh, ACTR2 / RFU, PPP3R1 / Fold change vs veh, PPP3R1 / RFU, PIK3R1 / Fold change vs veh, PIK3R1 / RFU, HNRNPA1 / Fold change vs veh, HNRNPA1 / RFU, RNF170 / Fold change vs veh, RNF170 / RFU, ZNF28 / Fold change vs veh, ZNF28 / RFU, RNGTT / Fold change vs veh, RNGTT / RFU, OGT / Fold change vs veh, OGT / RFU, BRD1 / Fold change vs veh, BRD1 / RFU, MARS / Fold change vs veh, MARS / RFU, ZNF655 / Fold change vs veh, ZNF655 / RFU, FAHD1 / Fold change vs veh, FAHD1 / RFU, BDP1 / Fold change vs veh, BDP1 / RFU, LRRCC1 / Fold change vs veh, LRRCC1 / RFU, ARID1A / Fold change vs veh, ARID1A / RFU, ZNF146 / Fold change vs veh, ZNF146 / RFU, ZNF330 / Fold change vs veh, ZNF330 / RFU, GPN3 / Fold change vs veh, GPN3 / RFU, C9orf123 / Fold change vs veh, C9orf123 / RFU, N4BP2L2 / Fold change vs veh, N4BP2L2 / RFU, ARFIP1 / Fold change vs veh, ARFIP1 / RFU, FAM179B / Fold change vs veh, FAM179B / RFU, BCL10 / Fold change vs veh, BCL10 / RFU, UHRF1BP1L / Fold change vs veh, UHRF1BP1L / RFU, BET1 / Fold change vs veh, BET1 / RFU, CNOT2 / Fold change vs veh, CNOT2 / RFU, ZNF268 / Fold change vs veh, ZNF268 / Fold change vs veh, ZNF507 / RFU, DGCR2 / Fold change vs veh, DGCR2 / RFU, WDSUB1 / Fold change vs veh, WDSUB1 / Fold change vs veh, HSP90B1 /// MIR3652 / RFU, ADSS / Fold change vs veh, ADSS / RFU, GK / Fold change vs veh, GK / RFU, ZNF148 / Fold change vs veh, ZNF148 / RFU, TAF9 / Fold change vs veh, TAF9 / RFU, SLC1A5 / Fold change vs veh, SLC1A5 / RFU, SLMO2 / Fold change vs veh, SLMO2 / RFU, ABCC4 / Fold change vs veh, ABCC4 / RFU, LOC101060439 /// RAP1B / Fold change vs veh, LOC101060439 /// RAP1B / RFU, RFX7 / Fold change vs veh, RFX7 / RFU, GTPBP10 / Fold change vs veh, GTPBP10 / RFU, CNEP1R1 / Fold change vs veh, CNEP1R1 / RFU, BIVM-ERCC5 /// ERCC5 / Fold change vs veh, BIVM-ERCC5 /// ERCC5 / RFU, ILF3 / Fold change vs veh, ILF3 / RFU 11762660_at / Fold change /veh 11762660_at / RFU VCAN (11757783_s_at) / Fold change /veh VCAN (11757783_s_at) / RFU DDX43 (11728927_at) / Fold change /veh DDX43 (11728927_at) / RFU KRT8 (11758188_x_at) / Fold change /veh KRT8 (11758188_x_at) / RFU NKD1 (11759106_at) / Fold change /veh NKD1 (11759106_at) / RFU SRD5A1 (11742802_a_at) / Fold change /veh SRD5A1 (11742802_a_at) / RFU TPSAB1 /// TPSB2 (11721975_s_at) / Fold change /veh TPSAB1 /// TPSB2 (11721975_s_at) / RFU GSTM3 (11746129_a_at) / Fold change /veh GSTM3 (11746129_a_at) / RFU IL23R (11737362_x_at) / Fold change /veh IL23R (11737362_x_at) / RFU TMEM51 (11727254_a_at) / Fold change /veh TMEM51 (11727254_a_at) / RFU PIWIL2 (11732686_x_at) / Fold change /veh PIWIL2 (11732686_x_at) / RFU ORM1 (11744905_x_at) / Fold change /veh ORM1 (11744905_x_at) / RFU CCDC152 (11743942_at) / Fold change /veh CCDC152 (11743942_at) / RFU ECM1 (11717891_a_at) / Fold change /veh ECM1 (11717891_a_at) / RFU IL23R (11748794_a_at) / Fold change /veh IL23R (11748794_a_at) / RFU TNFAIP8L3 (11732012_x_at) / Fold change /veh TNFAIP8L3 (11732012_x_at) / RFU MBOAT4 (11741988_at) / Fold change /veh MBOAT4 (11741988_at) / RFU 11764193_at / Fold change /veh 11764193_at / RFU TMEM53 (11763286_at) / Fold change /veh TMEM53 (11763286_at) / RFU MAGEB2 (11727129_at) / Fold change /veh MAGEB2 (11727129_at) / RFU TMEM200A (11744735_a_at) / Fold change /veh TMEM200A (11744735_a_at) / RFU CCDC152 (11751479_a_at) / Fold change /veh CCDC152 (11751479_a_at) / RFU FAM211A (11726209_a_at) / Fold change /veh FAM211A (11726209_a_at) / RFU RGS16 (11746705_a_at) / Fold change /veh RGS16 (11746705_a_at) / RFU VCAN (11755009_s_at) / Fold change /veh VCAN (11755009_s_at) / RFU RHOB (11743442_s_at) / Fold change /veh RHOB (11743442_s_at) / RFU RGS16 (11720943_a_at) / Fold change /veh RGS16 (11720943_a_at) / RFU RGS16 (11720944_at) / Fold change /veh RGS16 (11720944_at) / RFU, VPS4B / Fold change vs veh, VPS4B / RFU, CREB1 / Fold change vs veh, CREB1 / RFU, DNAJC13 / Fold change vs veh, DNAJC13 / RFU, GNAQ / Fold change vs veh, GNAQ / RFU, CDK5R1 / Fold change vs veh, CDK5R1 / RFU, ZRANB3 / Fold change vs veh, ZRANB3 / RFU, CUL4A / Fold change vs veh, CUL4A / RFU, CCNY / Fold change vs veh, CCNY / RFU, UFL1 / Fold change vs veh, UFL1 / RFU, COG3 / Fold change vs veh, COG3 / RFU, DIAPH2 / Fold change vs veh, DIAPH2 / RFU, SKA2 / Fold change vs veh, SKA2 / RFU, AFF3 / Fold change vs veh, AFF3 / RFU, LMF1 / Fold change vs veh, LMF1 / RFU, IPO11 / Fold change vs veh, IPO11 / RFU, DFFB / Fold change vs veh, DFFB / RFU, FOXP1 / Fold change vs veh, FOXP1 / RFU, CARD8 / Fold change vs veh, CARD8 / RFU, STRN3 / Fold change vs veh, STRN3 / RFU, ADK / Fold change vs veh, ADK / RFU, RASSF2 / Fold change vs veh, RASSF2 / RFU, WIPF1 / Fold change vs veh, WIPF1 / RFU, LARP1B / Fold change vs veh, LARP1B / RFU, RASA1 / Fold change vs veh, RASA1 / RFU, RB1 / Fold change vs veh, RB1 / RFU, PPFIA1 / Fold change vs veh, PPFIA1 / RFU, MAT2A / Fold change vs veh, MAT2A / RFU, CCT5 / Fold change vs veh, CCT5 / RFU, WDR92 / Fold change vs veh, WDR92 / RFU, CUX1 / Fold change vs veh, CUX1 / RFU, TTC7A / Fold change vs veh, TTC7A / RFU, TMEM135 / Fold change vs veh, TMEM135 / RFU, DEPTOR / Fold change vs veh, DEPTOR / RFU, CPM / Fold change vs veh, CPM / RFU, DNAJB6 / Fold change vs veh, DNAJB6 / RFU, CACNA2D3 / Fold change vs veh, CACNA2D3 / RFU, DTX4 / Fold change vs veh, DTX4 / RFU, TFCP2 / Fold change vs veh, TFCP2 / RFU, GMCL1 /// GMCL1P1 / Fold change vs veh, GMCL1 /// GMCL1P1 / RFU, AEBP2 / Fold change vs veh, AEBP2 / RFU, SNHG1 /// SNORD22 /// SNORD25 /// SNORD26 /// SNORD27 /// SNORD28 /// SNORD29 /// SNORD31 / Fold change vs veh, SNHG1 /// SNORD22 /// SNORD25 /// SNORD26 /// SNORD27 /// SNORD28 /// SNORD29 /// SNORD31 / Fold change (Aza/veh), C12orf56 (ProbeSet 11735607_a_at) / Fold change (ACY-1035/veh), C12orf56 (ProbeSet 11735607_a_at) / Fold change (Aza/veh), FGFR1OP (ProbeSet 11751329_s_at) / Fold change (ACY-1035/veh), FGFR1OP (ProbeSet 11751329_s_at) / Fold change (Aza/veh), VPS36 (ProbeSet 11739960_a_at) / Fold change (ACY-1035/veh), VPS36 (ProbeSet 11739960_a_at) / RFU SYPL1 (11715823_x_at) / Fold change /veh SYPL1 (11715823_x_at) / RFU IGFBP7 (11715501_s_at) / Fold change /veh IGFBP7 (11715501_s_at) / RFU REEP3 (11722064_at) / Fold change /veh REEP3 (11722064_at) / RFU IGLL1 (11728026_x_at) / Fold change /veh IGLL1 (11728026_x_at): dose or concentration left out as unconfirmed
# Conditions: ProbeSet 11728443_a_at; LIST B
smiles,measurement,value
Nc1ccc(-c2cccs2)cc1NC(=O)c1ccc2c(c1)cc(C1CC1)n2CCN1CCOCC1 [ACY-1035],"Fold change vs veh, TAOK1",0.89
